# Values joined by “and” are separate entries in the source; they are usually repeats but may differ in a detail not shown here. Equal entries are not always repeated.
# What was measured:
# [1] = system: PSMA-positive cells LNCap; assay: Uptake of labeled compounds by PSMA-positive cells LNCap; format: cell-based; conditions: 37° C., 0.5 h
# Method: LNCap cells (Shangcheng Beina Chuanglian Biotechnology Co., Ltd., Industrial Park, Chengguan Town, Shangcheng County, Xinyang City, Henan Province) were revived and passaged for expansion. After the cells were expanded to a sufficient amount, cells were seeded in a 24-well plate at a density of 1×10^4 cells/well. Uptake tests were performed when cells grew to 80%-90% confluence.
# The above labeled compounds ^177Lu-E1, ^177Lu-E2, ^177Lu-E3, ^177Lu-E5, ^177Lu-E9, ^177Lu-E14 and ^177Lu-PSMA-617 were diluted with serum-free medium into 10000, 1000, 100, 10, 1, 0.1 and 0 nM. 1 mL of the diluted solution was added to a 24-well plate, and incubated at 37° C. for 0.5 h. The supernatant was discarded and the cells were washed 3 times with PBS. 250 μL of 1M NaOH solution was added to each well. The cells were pipetted until they were completely dissolved, and transferred to a scintillation vial. 250 μL of NaOH solution was added to each well again to wash the bottom of the well and transferred to a scintillation vial. 2 mL of scintillation fluid was added to each scintillation vial and shaken well. A liquid scintillation counter was used to detect radioactive counts in each vial.
# [2] = In vivo metabolism test of 177Lu-labeled complex in SD rats (plasma radioactive counts); conditions: for plasma radioactive counts: individual rat, 100 μL plasma; for plasma radioactive counts, MEAN: mean of rats
# Method: Eighteen SD rats (Hangzhou Ziyuan Experimental Animal Technology Co., Ltd.), male, weighing 180-200 g, were randomly divided into 6 groups, 3 rats in each group. […] of the labeled precursor compound was injected into the tail vein of each mouse. 250 μL of orbital blood was collected into anticoagulant tubes at 5 min, 0.5 h, 1 h, 2 h, 4 h, 8 h and 24 h after administration. Blood was centrifuged at 3000 rpm for 10 min, and 100 μL of plasma was taken into scintillation vials. 2 mL of scintillation fluid was added to each scintillation vial and shaken well. A liquid scintillation counter was used to detect radioactive counts in each vial.
# [3] = system: LNCaP PSMA-positive tumors; assay: SPECT imaging in mice carrying LNCaP PSMA-positive tumors; format: in vivo; conditions: 100 μCi tail vein
# Method: 100 μCi of ^177Lu-labeled ^177Lu-E3 and ^177Lu-PSMA-617 were injected into mice carrying LNCaP PSMA-positive tumors (Jiangsu Huajing Molecular Imaging and Drug Research Institute Co., Ltd.) through the tail vein respectively. Mice were anesthetized with 2% isoflurane/98% oxygen for SPECT image contrast study.
# [4] = In vivo distribution in healthy SD rats; conditions: intravenous, FIG. 7
# Method: In vivo distribution in healthy rats: Radiolabeled E series compounds were injected into the tail vein of SD rats aged 6-9 weeks (Hangzhou Ziyuan Testal Animal Technology Co., Ltd.) (about 7.4 MBq/mouse, specific activity: 84200.14 kBq/μg). At different time points (0.25, 0.5, 1, 2, 4, 6, 24, 48, 72 h) after administration of labeled compounds to SD rats, the animals were euthanized by carbon dioxide inhalation, and the blood and […] viscera (blood, liver, spleen, lungs, heart, muscle, pancreas, testes) of the animals were collected after euthanasia.
# (§1) Blood was collected through the abdominal aorta, and immediately after collection, 100 μL was quantified into a designated centrifuge tube (weighed). After the viscera were collected, they were washed twice with deionized water, wiped dry, put into a pre-weighed test tube, and weighed again. The weight of samples was calculated. The sample was measured on the day of collection. All blood samples and tissue samples were measured for radioactive counts using a gamma counter.
# 22rv1 tumor = assay: Tissue distribution in PSMA-positive 22rv1 tumor-bearing mice; format: in vivo; conditions: tail vein, FIG. 8
# Method: Tissue distribution in PSMA-positive tumor-bearing mice: About 6-9 weeks old (Nod scid) mice (Jiangsu Huajing Molecular Imaging and Drug Research Institute Co., Ltd.) were inoculated subcutaneously with 5×10^6 cells of 22rv1 (in 50% Matrigel, Corning) on the right shoulder of animals. When the tumor grew to a size of about 150-350 mm^3, ^177Lu-E3 radiolabeled compound was injected into the tail vein of the mouse (about 7.4 MBq/mouse, specific activity: 22423.82 KBq/μg). The animals were euthanized by carbon dioxide inhalation at 0.25, 0.5, 1, 6, 24, 72, 144, and 168 hours respectively after administration. Blood and viscera (blood, liver, spleen, lung, heart, muscle, pancreas, testis, tumor) were collected from animals after euthanasia.
# as §1, with “deionized water and” for “deionized water,”, “wiped dry. The viscera were” for “wiped dry,”, “of the sample” for “of samples”, “gamma counter, and the results are shown in FIG. 8.” for “gamma counter.”
# 22rv1 xenograft tumor = assay: Pharmacodynamic study in 22rv1 mouse xenograft tumor model (effect example 11); format: in vivo, mice; conditions: over the two dose groups
# [5] = 5 min after tail vein injection
# [6] = 0.5 h after tail vein injection
smiles,measurement,setting,value
O=C([O-])CN1CCN(CC(=O)[O-])CCN(CC(=O)N2CCc3cc(C(=O)NC(Cc4ccc5ccccc5c4)C(=O)NCCCCC(NC(=O)NC(CCC(=O)O)C(=O)O)C(=O)O)ccc3C2)CCN(CC(=O)[O-])CC1.[177Lu+3] (stereo not shown) [^177Lu-E3],uptake by LNCap cells,[1]; 0.1 nM,48 cpm
same,uptake by LNCap cells,[1]; 1 nM,95 cpm
same,uptake by LNCap cells,[1]; 10 nM,346 cpm
same,uptake by LNCap cells,[1]; 100 nM,555 cpm
same,uptake by LNCap cells,[1]; 1000 nM,903 cpm
same,uptake by LNCap cells,[1]; 10000 nM,3150 cpm
same,plasma radioactive counts,[2]; [5],26791 cpm and 31372 cpm and 27797 cpm
same,plasma radioactive counts,[2]; [6],10681 cpm and 8675 cpm and 8026 cpm
same,plasma radioactive counts,[2]; 1 h after tail vein injection,3448 cpm and 3676 cpm and 2916 cpm
same,plasma radioactive counts,[2]; 2 h after tail vein injection,539 cpm and 559 cpm and 458 cpm
same,plasma radioactive counts,[2]; 4 h after tail vein injection,178 cpm and 135 cpm and 181 cpm
same,plasma radioactive counts,[2]; 8 h after tail vein injection,154 cpm and 191 cpm and 184 cpm
same,plasma radioactive counts,[2]; 24 h after tail vein injection,191 cpm and 175 cpm and 179 cpm
same,"plasma radioactive counts, MEAN",[2]; [5],28653 cpm
same,"plasma radioactive counts, MEAN",[2]; [6],9127 cpm
same,"plasma radioactive counts, MEAN",[2]; 1 h after tail vein injection,3347 cpm
same,"plasma radioactive counts, MEAN",[2]; 2 h after tail vein injection,519 cpm
same,"plasma radioactive counts, MEAN",[2]; 4 h after tail vein injection,165 cpm
same,"plasma radioactive counts, MEAN",[2]; 8 h after tail vein injection,176 cpm
same,"plasma radioactive counts, MEAN",[2]; 24 h after tail vein injection,182 cpm
same,accumulation in PSMA-positive tumors compared with reference animals injected with ^177Lu-PSMA-617,[3],significantly higher
same,route of excretion,[3],mainly excreted through the kidney
same,"Heart, Averaged",[3]; 1 h,6.44 % ID/cc
same,"Kidney, Averaged",[3]; 1 h,165.36 % ID/cc
same,"Liver, Averaged",[3]; 1 h,3.08 % ID/cc
same,"Lung, Averaged",[3]; 1 h,5.52 % ID/cc
same,"Tumor, Averaged",[3]; 1 h,23.56 % ID/cc
same,"Heart, Averaged",[3]; 4 h,2.41 % ID/cc
same,"Kidney, Averaged",[3]; 4 h,129.55 % ID/cc
same,"Liver, Averaged",[3]; 4 h,2.03 % ID/cc
same,"Lung, Averaged",[3]; 4 h,3.26 % ID/cc
same,"Tumor, Averaged",[3]; 4 h,28.79 % ID/cc
same,"Heart, Averaged",[3]; 8 h,1.39 % ID/cc
same,"Kidney, Averaged",[3]; 8 h,87.74 % ID/cc
same,"Liver, Averaged",[3]; 8 h,2.54 % ID/cc
same,"Lung, Averaged",[3]; 8 h,1.82 % ID/cc
same,"Tumor, Averaged",[3]; 8 h,31.79 % ID/cc
same,"Heart, Averaged",[3]; 1 d,3.23 % ID/cc
same,"Kidney, Averaged",[3]; 1 d,8.03 % ID/cc
same,"Liver, Averaged",[3]; 1 d,1.94 % ID/cc
same,"Lung, Averaged",[3]; 1 d,2.71 % ID/cc
same,"Tumor, Averaged",[3]; 1 d,34.01 % ID/cc
same,"Heart, Averaged",[3]; 3 d,2.03 % ID/cc
same,"Kidney, Averaged",[3]; 3 d,3.74 % ID/cc
same,"Liver, Averaged",[3]; 3 d,1.80 % ID/cc
same,"Lung, Averaged",[3]; 3 d,2.68 % ID/cc
same,"Tumor, Averaged",[3]; 3 d,32.84 % ID/cc
same,uptake in each organ,[4],low
same,drug concentration in the tumor after 7 days,22rv1 tumor,high drug concentration
same,time of highest uptake in the tumor after administration,22rv1 tumor,2 h
same,uptake in non-target organs,22rv1 tumor,always low
same,tumor growth inhibition rate,22rv1 xenograft tumor,71-80%
